Assay results from ChEMBL document CHEMBL1201862, “PubChem BioAssay data set” (2004).
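Assay format: 96-well plates, 48-hour exposure. GI50 is the concentration that inhibits growth by half.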 Activity calls are given as the source filed them. Cut-off read from the data, not from the text of the source: active = GI50 up to about 1.1 µM and inactive = higher. Where a SMILES comes first, the peptide text is derived from it. The star is where a group is joined. ONb = O=[N+]([O-])c1ccc(CO*)cc1; Boc = CC(C)(C)OC(=O)*

Assays:
Assay in all cases: DTP human tumour cell line panel, 48 h
Malme-3M = test system: Malme-3M
NCI-H460 = test system: NCI-H460
M14 = test system: M14
LOX IMVI = test system: LOX IMVI
U-251 = test system: U-251
UACC-257 = test system: UACC-257
HCC 2998 = test system: HCC 2998
COLO 205 = test system: COLO 205
786-0 = test system: 786-0
UACC-62 = test system: UACC-62
SK-OV-3 = test system: SK-OV-3
MDA-MB-435 = test system: MDA-MB-435
CCRF-CEM = test system: CCRF-CEM
RPMI-8226 = test system: RPMI-8226
MDA-N = test system: MDA-N
IGROV-1 = test system: IGROV-1
OVCAR-8 = test system: OVCAR-8
A549 = test system: A549
HCT-15 = test system: HCT-15
OVCAR-4 = test system: OVCAR-4
MOLT-4 = test system: MOLT-4
SNB-19 = test system: SNB-19
KM12 = test system: KM12
SN12C = test system: SN12C
HCT-116 = test system: HCT-116
UO-31 = test system: UO-31
NCI/ADR-RES = test system: NCI/ADR-RES
DU-145 = test system: DU-145
NCI-H23 = test system: NCI-H23
PC-3 = test system: PC-3
OVCAR-3 = test system: OVCAR-3
CAKI-1 = test system: CAKI-1
SF-295 = test system: SF-295
HT-29 = test system: HT-29
SK-MEL-2 = test system: SK-MEL-2
MCF7 = test system: MCF7
K562 = test system: K562
HOP-62 = test system: HOP-62
HL-60 = test system: HL-60
T47D = test system: T47D
A498 = test system: A498
NCI-H522 = test system: NCI-H522
OVCAR-5 = test system: OVCAR-5
ACHN = test system: ACHN
MDA-MB-231 = test system: MDA-MB-231
EKVX = test system: EKVX
SK-MEL-28 = test system: SK-MEL-28
HOP-92 = test system: HOP-92
SNB-75 = test system: SNB-75
SR = test system: SR
SF-268 = test system: SF-268
SW-620 = test system: SW-620
TK-10 = test system: TK-10
SF-539 = test system: SF-539
SK-MEL-5 = test system: SK-MEL-5
RXF 393 = test system: RXF 393
Hs-578T = test system: Hs-578T
NCI-H226 = test system: NCI-H226

Measured: GI50

CO[C@@H]1/C=C\C=C(/C)C(=O)NC2=CC(=O)C(NCCN(C)C)=C(C[C@@H](C)C[C@@H](OC)[C@@H](O)[C@H](C)/C=C(\C)[C@H]1OC(N)=O)C2=O
active: Malme-3M < 0.01 µM | NCI-H460 < 0.01 µM | M14 < 0.01 µM | LOX IMVI < 0.01 µM | U-251 < 0.01 µM | UACC-257 0.0121 µM | HCC 2998 < 0.0118 µM | COLO 205 < 0.01 µM | 786-0 < 0.0204 µM | UACC-62 < 0.01 µM | SK-OV-3 0.0121 µM | MDA-MB-435 < 0.01 µM | CCRF-CEM < 0.0144 µM | RPMI-8226 0.121 µM | MDA-N < 0.01 µM | IGROV-1 < 0.01 µM | OVCAR-8 < 0.0191 µM | A549 < 0.0117 µM | OVCAR-4 0.841 µM | MOLT-4 0.0166 µM | SNB-19 < 0.0236 µM | KM12 < 0.01 µM | SN12C < 0.01 µM | HCT-116 < 0.0132 µM | UO-31 0.652 µM
0.345 µM: HCT-15

CC(C)CC(NC(=O)OC(C)(C)C)C(=O)NC(CCC(=O)OCc1ccc([N+](=O)[O-])cc1)C(=O)OCc1ccc([N+](=O)[O-])cc1 (stereo not drawn) (Boc-Leu-Glu(ONb)-ONb; configuration not given here)
> 100 µM: HCT-15
inactive: Malme-3M > 100 µM | NCI/ADR-RES > 100 µM | NCI-H460 22 µM | M14 26.2 µM | LOX IMVI 25.2 µM | U-251 27.6 µM | UACC-257 43.8 µM | DU-145 13.5 µM | NCI-H23 20 µM | PC-3 27.9 µM | OVCAR-3 26.6 µM | HCC 2998 23 µM | COLO 205 17.4 µM | 786-0 26.1 µM | UACC-62 28.4 µM | CAKI-1 > 100 µM | SF-295 43.4 µM | MDA-MB-435 > 10 µM | CCRF-CEM 19.8 µM | HT-29 21.2 µM | SK-MEL-2 22.1 µM | RPMI-8226 22.4 µM | MDA-N 44.8 µM | MCF7 > 10 µM | K562 9.44 µM | IGROV-1 24.4 µM | HOP-62 > 100 µM | HL-60 4.05 µM | T47D 92.3 µM | A498 40.2 µM | NCI-H522 4.57 µM | OVCAR-8 37.1 µM | OVCAR-5 > 100 µM | ACHN 46.6 µM | MDA-MB-231 > 100 µM | EKVX 49.2 µM | OVCAR-4 > 100 µM | SK-MEL-28 15.8 µM | HOP-92 56.4 µM | MOLT-4 13 µM | SNB-19 > 100 µM | SN12C > 100 µM | HCT-116 37.5 µM | SNB-75 16.6 µM | SR 13.8 µM | SF-268 18.4 µM | SW-620 50.9 µM | TK-10 28.6 µM | UO-31 82.6 µM | SF-539 18.7 µM

O=c1[nH]c(=O)n(C2CC(O)C(CO)O2)cc1/N=N/NCCCc1ccccc1 (stereo not drawn)
> 100 µM: HCT-15
inactive: Malme-3M > 100 µM | NCI/ADR-RES > 100 µM | NCI-H460 > 100 µM | M14 > 100 µM | LOX IMVI > 100 µM | UACC-257 > 100 µM | DU-145 > 100 µM | NCI-H23 > 100 µM | PC-3 > 100 µM | OVCAR-3 > 100 µM | HCC 2998 > 100 µM | COLO 205 > 100 µM | 786-0 > 100 µM | UACC-62 > 100 µM | SK-OV-3 > 100 µM | CAKI-1 > 100 µM | SF-295 > 100 µM | MDA-MB-435 > 100 µM | CCRF-CEM > 100 µM | HT-29 > 100 µM | SK-MEL-2 > 100 µM | MDA-N > 100 µM | MCF7 > 100 µM | SK-MEL-5 > 100 µM | IGROV-1 > 100 µM | HOP-62 > 100 µM | HL-60 > 100 µM | T47D > 100 µM | A498 > 100 µM | OVCAR-8 > 100 µM | OVCAR-5 > 100 µM | ACHN > 100 µM | MDA-MB-231 > 100 µM | RXF 393 > 100 µM | A549 > 100 µM | Hs-578T > 100 µM | EKVX > 100 µM | OVCAR-4 > 100 µM | SK-MEL-28 > 100 µM | HOP-92 > 100 µM | MOLT-4 > 100 µM | KM12 > 100 µM | SN12C > 100 µM | HCT-116 > 100 µM | SR > 100 µM | NCI-H226 > 100 µM | SF-268 > 100 µM | TK-10 > 100 µM | SF-539 > 100 µM
active: UO-31 < 0.01 µM
